From patent publication US20090035306A1 (KALYPSYS, INC., priority 2006, published 2009) come the findings set out here.

The subject of this test is Mice. Kind of test: In vivo GLP-1 secretion (GLP-1 protocol and GLP-1 assay). Also noted: species or system mouse. Conditions: 30 mg/kg, portal vein blood. The protocol: Vehicle is CMC-Tween: 0.5% CMC+0.25% Tween 20 at an appropriate ml/kg. Dextrose dose per mouse=2 g dextrose/kg made from 0.5 g/ml stock dextrose solution. Compound 1 dose per mouse=30 mg/kg in CMC/Tween vehicle made from 4 mg/mL stock solution by adding 50 μL DMSO to 20 mg Compound 1, stirring to make a paste, adding 1 ml CMC/Tween with stirring, sonicating for 8 minutes on energy 05, and adjusting to 5 ml with CMC/Tween.
Mice (3 per group) were fasted at 6 am for an experiment at noon. Blood glucose was measured from tail nick blood using an Accucheck—Compact Monitoring Kit (Roche Diagnostics, Indianapolis Ind.). Baseline (time=−15 min) blood glucose concentration was determined for all mice. 2 g/kg dextrose (Hospira, Lake Forest, Ill.) was administered orally at time 0. Terminal blood samples were collected from the mice via portal vein draw (˜500 μL) into EDTA microtainer tubes at the following time points: −15, 0, 3, 6, 9, 12, 15, 20, 30 and 120 min. […] Plasma was stored in −80 C freezer to be analyzed for other chemistry measurements.
A GLP-1(Human, Mouse, Rat) ELA kit was used (ALPCO Diagnostics, Salem, N.H., Cat # 48-GLP-1-160) was used in a 96-well plate. […] 100 μl/well stop solution was added to each well to stop reaction, optical absorbance of wells read at 490 nm, and results calculated.

Each structure is given as a SMILES string.

Turning to `O=c1c2ccccc2nc(-c2ccc(F)cc2)n1NCc1ccc(Br)cc1` [Example 1], the “Plasma GLP-1, Mean” value stood at 9.61 ng/mL (2 g/kg dextrose orally at time 0, time 20 min) and 6.30 ng/mL (2 g/kg dextrose orally at time 0, time −15 min (baseline)).
